Tested on: 518A2
Test: Cytotoxicity against human 518A2 cells after 96 hrs by SRB assay
Format: functional, cell-based
Conditions: 518A2, 96 h

Compound	EC50
CC(=O)[C@@H]1CC[C@]2(C(=O)OCc3ccccc3)CC[C@]3(C)[C@H](CC[C@@H]4[C@@]5(C)CC[C@@H](N)C(C)(C)[C@@H]5CC[C@]43C)[C@@H]12	2.3 µM
CC(=O)[C@@H]1CC[C@]2(C(=O)O)CC[C@]3(C)[C@H](CC[C@@H]4[C@@]5(C)CC[C@H](O)C(C)(C)[C@@H]5CC[C@]43C)[C@@H]12 [PLATANIC ACID]	44.8 µM
CC(=O)O[C@H]1CC[C@]2(C)[C@H]3CC[C@@H]4[C@H]5[C@H](C(C)=O)CC[C@]5(C(=O)NCCN5CCCC5)CC[C@@]4(C)[C@]3(C)CC[C@H]2C1(C)C	3.3 µM
CC(=O)O[C@H]1CC[C@]2(C)[C@H]3CC[C@@H]4[C@H]5[C@H](C(C)=O)CC[C@]5(C(=O)O)CC[C@@]4(C)[C@]3(C)CC[C@H]2C1(C)C	> 30 µM
CC(=O)[C@@H]1CC[C@]2(C(=O)NCCN(C)C)CC[C@]3(C)[C@H](CC[C@@H]4[C@@]5(C)CC[C@H](O)C(C)(C)[C@@H]5CC[C@]43C)[C@@H]12	3.6 µM
C[C@@H](N)[C@@H]1CC[C@]2(CO)CC[C@]3(C)[C@H](CC[C@@H]4[C@@]5(C)CC[C@H](O)C(C)(C)[C@@H]5CC[C@]43C)[C@@H]12	23.7 µM
CC(=O)O[C@H]1CC[C@]2(C)[C@H]3CC[C@@H]4[C@H]5[C@H](/C(C)=N\O)CC[C@]5(C(=O)OCc5ccccc5)CC[C@@]4(C)[C@]3(C)CC[C@H]2C1(C)C	16.5 µM
CC(=O)O[C@H]1CC[C@]2(C)[C@H]3CC[C@@H]4[C@H]5[C@H]([C@@H](C)N)CC[C@]5(C(=O)OCc5ccccc5)CC[C@@]4(C)[C@]3(C)CC[C@H]2C1(C)C	2.2 µM

Tested on: A2780
Test: Cytotoxicity against human A2780 cells after 96 hrs by SRB assay
Format: functional, cell-based
Conditions: A2780, 96 h

Compound	EC50
CC(=O)[C@@H]1CC[C@]2(C(=O)OCc3ccccc3)CC[C@]3(C)[C@H](CC[C@@H]4[C@@]5(C)CC[C@@H](N)C(C)(C)[C@@H]5CC[C@]43C)[C@@H]12	2.8 µM
CC(=O)[C@@H]1CC[C@]2(C(=O)O)CC[C@]3(C)[C@H](CC[C@@H]4[C@@]5(C)CC[C@H](O)C(C)(C)[C@@H]5CC[C@]43C)[C@@H]12 [PLATANIC ACID]	37 µM
CC(=O)O[C@H]1CC[C@]2(C)[C@H]3CC[C@@H]4[C@H]5[C@H](C(C)=O)CC[C@]5(C(=O)NCCN5CCCC5)CC[C@@]4(C)[C@]3(C)CC[C@H]2C1(C)C	4.3 µM
CC(=O)O[C@H]1CC[C@]2(C)[C@H]3CC[C@@H]4[C@H]5[C@H](C(C)=O)CC[C@]5(C(=O)O)CC[C@@]4(C)[C@]3(C)CC[C@H]2C1(C)C	> 30 µM
CC(=O)[C@@H]1CC[C@]2(C(=O)NCCN(C)C)CC[C@]3(C)[C@H](CC[C@@H]4[C@@]5(C)CC[C@H](O)C(C)(C)[C@@H]5CC[C@]43C)[C@@H]12	4 µM
C[C@@H](N)[C@@H]1CC[C@]2(CO)CC[C@]3(C)[C@H](CC[C@@H]4[C@@]5(C)CC[C@H](O)C(C)(C)[C@@H]5CC[C@]43C)[C@@H]12	> 30 µM
CC(=O)O[C@H]1CC[C@]2(C)[C@H]3CC[C@@H]4[C@H]5[C@H](/C(C)=N\O)CC[C@]5(C(=O)OCc5ccccc5)CC[C@@]4(C)[C@]3(C)CC[C@H]2C1(C)C	9.9 µM
CC(=O)O[C@H]1CC[C@]2(C)[C@H]3CC[C@@H]4[C@H]5[C@H]([C@@H](C)N)CC[C@]5(C(=O)OCc5ccccc5)CC[C@@]4(C)[C@]3(C)CC[C@H]2C1(C)C	4 µM

Tested on: MCF7
Test: Cytotoxicity against human MCF7 cells after 96 hrs by SRB assay
Format: functional, cell-based
Conditions: MCF7, 96 h

Compound	EC50
CC(=O)[C@@H]1CC[C@]2(C(=O)OCc3ccccc3)CC[C@]3(C)[C@H](CC[C@@H]4[C@@]5(C)CC[C@@H](N)C(C)(C)[C@@H]5CC[C@]43C)[C@@H]12	1.9 µM
CC(=O)[C@@H]1CC[C@]2(C(=O)O)CC[C@]3(C)[C@H](CC[C@@H]4[C@@]5(C)CC[C@H](O)C(C)(C)[C@@H]5CC[C@]43C)[C@@H]12 [PLATANIC ACID]	34.2 µM
CC(=O)O[C@H]1CC[C@]2(C)[C@H]3CC[C@@H]4[C@H]5[C@H](C(C)=O)CC[C@]5(C(=O)NCCN5CCCC5)CC[C@@]4(C)[C@]3(C)CC[C@H]2C1(C)C	2 µM
CC(=O)O[C@H]1CC[C@]2(C)[C@H]3CC[C@@H]4[C@H]5[C@H](C(C)=O)CC[C@]5(C(=O)O)CC[C@@]4(C)[C@]3(C)CC[C@H]2C1(C)C	> 30 µM
CC(=O)[C@@H]1CC[C@]2(C(=O)NCCN(C)C)CC[C@]3(C)[C@H](CC[C@@H]4[C@@]5(C)CC[C@H](O)C(C)(C)[C@@H]5CC[C@]43C)[C@@H]12	3.2 µM
C[C@@H](N)[C@@H]1CC[C@]2(CO)CC[C@]3(C)[C@H](CC[C@@H]4[C@@]5(C)CC[C@H](O)C(C)(C)[C@@H]5CC[C@]43C)[C@@H]12	> 30 µM
CC(=O)O[C@H]1CC[C@]2(C)[C@H]3CC[C@@H]4[C@H]5[C@H](/C(C)=N\O)CC[C@]5(C(=O)OCc5ccccc5)CC[C@@]4(C)[C@]3(C)CC[C@H]2C1(C)C	7.3 µM
CC(=O)O[C@H]1CC[C@]2(C)[C@H]3CC[C@@H]4[C@H]5[C@H]([C@@H](C)N)CC[C@]5(C(=O)OCc5ccccc5)CC[C@@]4(C)[C@]3(C)CC[C@H]2C1(C)C	3 µM

Tested on: A549
Test: Cytotoxicity against human A549 cells after 96 hrs by SRB assay
Format: functional, cell-based
Conditions: A549, 96 h

Compound	EC50
CC(=O)[C@@H]1CC[C@]2(C(=O)OCc3ccccc3)CC[C@]3(C)[C@H](CC[C@@H]4[C@@]5(C)CC[C@@H](N)C(C)(C)[C@@H]5CC[C@]43C)[C@@H]12	3.6 µM
CC(=O)[C@@H]1CC[C@]2(C(=O)O)CC[C@]3(C)[C@H](CC[C@@H]4[C@@]5(C)CC[C@H](O)C(C)(C)[C@@H]5CC[C@]43C)[C@@H]12 [PLATANIC ACID]	47.3 µM
CC(=O)O[C@H]1CC[C@]2(C)[C@H]3CC[C@@H]4[C@H]5[C@H](C(C)=O)CC[C@]5(C(=O)NCCN5CCCC5)CC[C@@]4(C)[C@]3(C)CC[C@H]2C1(C)C	2.9 µM
CC(=O)O[C@H]1CC[C@]2(C)[C@H]3CC[C@@H]4[C@H]5[C@H](C(C)=O)CC[C@]5(C(=O)O)CC[C@@]4(C)[C@]3(C)CC[C@H]2C1(C)C	> 30 µM
CC(=O)[C@@H]1CC[C@]2(C(=O)NCCN(C)C)CC[C@]3(C)[C@H](CC[C@@H]4[C@@]5(C)CC[C@H](O)C(C)(C)[C@@H]5CC[C@]43C)[C@@H]12	5.1 µM
C[C@@H](N)[C@@H]1CC[C@]2(CO)CC[C@]3(C)[C@H](CC[C@@H]4[C@@]5(C)CC[C@H](O)C(C)(C)[C@@H]5CC[C@]43C)[C@@H]12	> 30 µM
CC(=O)O[C@H]1CC[C@]2(C)[C@H]3CC[C@@H]4[C@H]5[C@H](/C(C)=N\O)CC[C@]5(C(=O)OCc5ccccc5)CC[C@@]4(C)[C@]3(C)CC[C@H]2C1(C)C	11.2 µM
CC(=O)O[C@H]1CC[C@]2(C)[C@H]3CC[C@@H]4[C@H]5[C@H]([C@@H](C)N)CC[C@]5(C(=O)OCc5ccccc5)CC[C@@]4(C)[C@]3(C)CC[C@H]2C1(C)C	3.1 µM

Tested on: NIH3T3
Test: Cytotoxicity against mouse NIH/3T3 cells after 96 hrs by SRB assay
Format: cell-based
Conditions: NIH3T3, 96 h

Compound	EC50
CC(=O)[C@@H]1CC[C@]2(C(=O)OCc3ccccc3)CC[C@]3(C)[C@H](CC[C@@H]4[C@@]5(C)CC[C@@H](N)C(C)(C)[C@@H]5CC[C@]43C)[C@@H]12	2.5 µM
CC(=O)[C@@H]1CC[C@]2(C(=O)O)CC[C@]3(C)[C@H](CC[C@@H]4[C@@]5(C)CC[C@H](O)C(C)(C)[C@@H]5CC[C@]43C)[C@@H]12 [PLATANIC ACID]	35.4 µM
CC(=O)O[C@H]1CC[C@]2(C)[C@H]3CC[C@@H]4[C@H]5[C@H](C(C)=O)CC[C@]5(C(=O)NCCN5CCCC5)CC[C@@]4(C)[C@]3(C)CC[C@H]2C1(C)C	0.6 µM
CC(=O)O[C@H]1CC[C@]2(C)[C@H]3CC[C@@H]4[C@H]5[C@H](C(C)=O)CC[C@]5(C(=O)O)CC[C@@]4(C)[C@]3(C)CC[C@H]2C1(C)C	> 30 µM
CC(=O)[C@@H]1CC[C@]2(C(=O)NCCN(C)C)CC[C@]3(C)[C@H](CC[C@@H]4[C@@]5(C)CC[C@H](O)C(C)(C)[C@@H]5CC[C@]43C)[C@@H]12	3.5 µM
C[C@@H](N)[C@@H]1CC[C@]2(CO)CC[C@]3(C)[C@H](CC[C@@H]4[C@@]5(C)CC[C@H](O)C(C)(C)[C@@H]5CC[C@]43C)[C@@H]12	16 µM
CC(=O)O[C@H]1CC[C@]2(C)[C@H]3CC[C@@H]4[C@H]5[C@H](/C(C)=N\O)CC[C@]5(C(=O)OCc5ccccc5)CC[C@@]4(C)[C@]3(C)CC[C@H]2C1(C)C	14 µM
CC(=O)O[C@H]1CC[C@]2(C)[C@H]3CC[C@@H]4[C@H]5[C@H]([C@@H](C)N)CC[C@]5(C(=O)OCc5ccccc5)CC[C@@]4(C)[C@]3(C)CC[C@H]2C1(C)C	4.1 µM

Tested on: HT-29
Test: cells
Conditions: Homo sapiens, HT-29, 96 h
Description: Cytotoxicity against human HT-29 cells after 96 hrs by SRB assay

Compound	EC50
CC(=O)[C@@H]1CC[C@]2(C(=O)O)CC[C@]3(C)[C@H](CC[C@@H]4[C@@]5(C)CC[C@H](O)C(C)(C)[C@@H]5CC[C@]43C)[C@@H]12 [PLATANIC ACID]	36.2 µM
CC(=O)O[C@H]1CC[C@]2(C)[C@H]3CC[C@@H]4[C@H]5[C@H](C(C)=O)CC[C@]5(C(=O)O)CC[C@@]4(C)[C@]3(C)CC[C@H]2C1(C)C	> 30 µM
C[C@@H](N)[C@@H]1CC[C@]2(CO)CC[C@]3(C)[C@H](CC[C@@H]4[C@@]5(C)CC[C@H](O)C(C)(C)[C@@H]5CC[C@]43C)[C@@H]12	20.3 µM
CC(=O)O[C@H]1CC[C@]2(C)[C@H]3CC[C@@H]4[C@H]5[C@H](/C(C)=N\O)CC[C@]5(C(=O)OCc5ccccc5)CC[C@@]4(C)[C@]3(C)CC[C@H]2C1(C)C	20.1 µM

Molecules with a lower EC50, results first:

EC50	Compound
3.9 µM	CC(=O)[C@@H]1CC[C@]2(C(=O)NCCN(C)C)CC[C@]3(C)[C@H](CC[C@@H]4[C@@]5(C)CC[C@H](O)C(C)(C)[C@@H]5CC[C@]43C)[C@@H]12
2.4 µM	CC(=O)[C@@H]1CC[C@]2(C(=O)OCc3ccccc3)CC[C@]3(C)[C@H](CC[C@@H]4[C@@]5(C)CC[C@@H](N)C(C)(C)[C@@H]5CC[C@]43C)[C@@H]12
2.3 µM	CC(=O)O[C@H]1CC[C@]2(C)[C@H]3CC[C@@H]4[C@H]5[C@H]([C@@H](C)N)CC[C@]5(C(=O)OCc5ccccc5)CC[C@@]4(C)[C@]3(C)CC[C@H]2C1(C)C
2.2 µM	CC(=O)O[C@H]1CC[C@]2(C)[C@H]3CC[C@@H]4[C@H]5[C@H](C(C)=O)CC[C@]5(C(=O)NCCN5CCCC5)CC[C@@]4(C)[C@]3(C)CC[C@H]2C1(C)C

— ChEMBL document CHEMBL4130577, “Platanic acid: A new scaffold for the synthesis of cytotoxic agents” (Eur J Med Chem, 2018)
